Numbered stars: 1 amine (or outer) side, 2 acyl side, 3 side chain; on linkers, the order of the positions; unused ones are H or OH. Square brackets hold non-standard residues; d marks the D form. Side chains are listed from the residue outwards. Peptide text beside a SMILES is read from it. * marks the point of attachment. C18 diacid = O=C(O)CCCCCCCCCCCCCCCCC(=O)*; γGlu = O=C(O)[C@H](CCC(=O)[*:2])N[*:1]; dIva = CC[C@@](C)(N)C(=O)O; AEEA = NCCOCCOCC(=O)O; Aib = CC(C)(N)C(=O)O
What was measured:
[1] = biological target: T1, human GIP receptor (Homo sapiens, UniProt P48546); experiment: In vitro cellular cAMP assay for GIP receptor efficacy (human adipocytes); type: cell-based; details: for EC50: read-out: hGIPR EC50; for Emax: read-out: hGIPR Emax
T1 construct: human adipocytes endogenously expressing the human GIP receptor; host or cells: human preadipocytes (Lonza) differentiated to adipocytes
T1 sequence (P48546 22-466): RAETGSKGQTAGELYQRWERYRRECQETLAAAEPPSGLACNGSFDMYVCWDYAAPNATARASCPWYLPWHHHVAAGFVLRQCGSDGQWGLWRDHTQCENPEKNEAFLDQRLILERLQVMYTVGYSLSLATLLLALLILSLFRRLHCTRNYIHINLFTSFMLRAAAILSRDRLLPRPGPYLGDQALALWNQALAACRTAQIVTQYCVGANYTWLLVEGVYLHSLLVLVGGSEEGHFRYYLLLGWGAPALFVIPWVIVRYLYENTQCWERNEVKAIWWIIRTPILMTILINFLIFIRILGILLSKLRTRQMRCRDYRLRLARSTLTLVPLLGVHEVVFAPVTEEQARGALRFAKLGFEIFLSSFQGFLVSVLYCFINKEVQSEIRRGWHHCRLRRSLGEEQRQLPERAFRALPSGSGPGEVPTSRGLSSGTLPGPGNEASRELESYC
How it was run: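 Human preadipocytes expanded, then differentiated 6 days (insulin, dexamethasone, PPARγ agonist, 200 μM IBMX, L-thyroxine) before plating at 5000 cells/well. Test compound applied 30 min at room temperature; cAMP measured by HTRF after 1 h with lysis-buffer reagents, read as 665/620 nm fluorescence ratio.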

[2] = ThT assay for the assessment of physical stability (fibrillation); type: physicochemical; details: ThT buffer system A: 100 mM phosphate buffer pH 7.4; 3 mg/ml, 37° C., shaking
From the text: Low physical stability of a peptide solution may lead to amyloid fibril formation, which is observed as well-ordered, thread-like macromolecular structures in the sample, which eventually may lead to gel formation. Thioflavin T (ThT) is widely used to visualize and quantify the presence of misfolded protein aggregates [Biancalana et al., Biochim. Biophys. Acta 2010, 1804(7), 1405]. […] Enzymol. 1999, 309, 274]. The time course for fibril formation often follows the characteristic shape of a sigmoidal curve and can be separated into three regions: a lag phase, a fast growth phase, and a plateau phase. The typical fibril formation process starts with the lag phase in which the amount of partially folded peptide turned into fibrils is not significant enough to be detected. The lag-time corresponds to the time the critical mass of the nucleus is built. Afterwards, a drastic elongation phase follows, and fibril concentration increases rapidly. Investigations were carried out to determine fibrillation tendencies under stress conditions by shaking at 37° C. within Fluoroskan Ascent FL or Fluoroskan Ascent. For the tests in Fluoroskan Ascent (FL), 200 μl sample were placed into a 96-well mictrotiter plate PS, flat bottom, Greiner Fluotrac No. 655076. Plates were sealed with Scotch Tape (Qiagen). Samples were stressed by continuous cycles of 10 sec shaking at 960 rpm and 50 sec rest period at 37° C. The kinetic was monitored by measuring fluorescence intensity every 20 min. Peptides were diluted in a buffer system to a final concentration of 3 mg/ml. 20 μl of a 10.1 mM ThT solution in H2O were added to 2 ml of peptide solution to receive a final concentration of 100 μM ThT. For each sample eight replicates were tested. • ThT buffer system A) 100 mM phosphate buffer pH 7.4 • ThT buffer system B) 100 mM phosphate buffer pH 7.4, 2.7 mg/ml m-cresol Lag time in hours (h) in Thioflavin T (ThT) assay of peptide samples was determined in ThT buffer system A as described in Methods.

[3] = biological target: T2, human GIP receptor (hGIPR) (Homo sapiens, UniProt P48546); experiment: Binding assay, displacement of [125I]GIP from HEK-293 membranes over-expressing GIPR (SPA); details: [125I]GIP displacement
T2 sequence (P48546 22-466): T1 sequence (P48546 22-466)
How it was run: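 Membranes from HEK-293 cells over-expressing human GIPR or GLP-1R, isolated by homogenising, sonicating and ultracentrifuging at 100000×g into HEPES/EDTA/NaCl buffer with protease inhibitors, were used for binding.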

Structure (SMILES) | EC50 [1] | Emax [1] | Increase in FI [2] | Lag time before increase [2] | IC50 [3]
CC[C@H](C)[C@H](NC(=O)[C@H](Cc1ccccc1)NC(=O)[C@H](CCC(=O)O)NC(=O)[C@H](CCC(=O)O)NC(=O)[C@H](CCC(N)=O)NC(=O)[C@H](Cc1c[nH]cn1)NC(=O)[C@@H](NC(=O)[C@H](CCCNC(=N)N)NC(=O)[C@H](CC(=O)O)NC(=O)[C@H](CCCCNC(=O)COCCOCCNC(=O)COCCOCCNC(=O)CC[C@H](NC(=O)CCCCCCCCCCCCCCCCC(=O)O)C(=O)O)NC(=O)C(C)(C)NC(=O)[C@@H](NC(=O)[C@H](CO)NC(=O)[C@H](CC(C)C)NC(=O)[C@H](CC(=O)O)NC(=O)[C@H](CO)NC(=O)[C@@H](NC(=O)[C@H](Cc1ccccc1)NC(=O)[C@@H](NC(=O)CNC(=O)[C@H](CCC(=O)O)NC(=O)C(C)(C)NC(=O)[C@@H](N)Cc1ccc(O)cc1)[C@@H](C)O)[C@@H](C)CC)[C@@H](C)CC)[C@@H](C)CC)C(=O)N[C@@H](CCC(=O)O)C(=O)N[C@@H](Cc1c[nH]c2ccccc12)C(=O)N[C@@H](CC(C)C)C(=O)N[C@@H](CC(C)C)C(=O)N[C@@H](C)C(=O)N[C@@H](CCC(N)=O)C(=O)N[C@@H](CCCNC(=N)N)C(=O)NCC(N)=O [SEQ ID NO: 4, H2N-Y-Aib-E-G-T-F-I-S-D-L-S-I-Aib-K[{AEEA}2-gGlu-C18OH]-D-R-I-H-Q-E-E-F-I-E-W-L-L-A-Q-R-G-NH2] | 2.4 nM | 134% | no | >45 h | 1.5 nM
CC[C@H](C)[C@H](NC(=O)[C@H](CCCNC(=N)N)NC(=O)[C@H](CC(=O)O)NC(=O)[C@H](CCCCNC(=O)COCCOCCNC(=O)COCCOCCNC(=O)CC[C@H](NC(=O)CCCCCCCCCCCCCCCCC(=O)O)C(=O)O)NC(=O)C(C)(C)NC(=O)[C@@H](NC(=O)[C@H](CO)NC(=O)[C@H](CC(C)C)NC(=O)[C@H](CC(=O)O)NC(=O)[C@H](CO)NC(=O)[C@@H](NC(=O)[C@H](Cc1ccccc1)NC(=O)[C@@H](NC(=O)CNC(=O)[C@H](CCC(=O)O)NC(=O)C(C)(C)NC(=O)[C@@H](N)Cc1ccc(O)cc1)[C@@H](C)O)[C@@H](C)CC)[C@@H](C)CC)C(=O)N[C@@H](Cc1c[nH]cn1)C(=O)N[C@@H](CCC(N)=O)C(=O)NC(C)(C)C(=O)N[C@@H](CCC(=O)O)C(=O)N[C@@H](Cc1ccccc1)C(=O)N[C@H](C(=O)N[C@@H](CCC(=O)O)C(=O)N[C@@H](Cc1c[nH]c2ccccc12)C(=O)N[C@](C)(CC)C(=O)N[C@@H](CC(C)C)C(=O)N[C@@H](C)C(=O)N[C@@H](CCC(N)=O)C(=O)NCC(=O)N1CCC[C@H]1C(=O)N[C@@H](CO)C(=O)N[C@@H](CO)C(=O)NCC(=O)N[C@@H](C)C(=O)N1CCC[C@H]1C(=O)N1CCC[C@H]1C(=O)N1CCC[C@H]1C(=O)N[C@@H](CO)C(N)=O)[C@@H](C)CC [SEQ ID NO: 31, H2N-Y-Aib-E-G-T-F-I-S-D-L-S-I-Aib-K[{AEEA}2-gGlu-C18OH]-D-R-I-H-Q-Aib-E-F-I-E-W-Iva-L-A-Q-G-P-S-S-G-A-P-P-P-S-NH2] (H-Y[Aib]EGTFISDLSI[Aib]K([AEEA-AEEA-γGlu-C18 diacid])DRIHQ[Aib]EFIEW[dIva]LAQGPSSGAPPPS-NH2) | 0.7 nM | 121% | no | >45 h | 0.3 nM
